Data published in patent US4156724A, “N-acylamino-alpha-arylacetamido cephalosporins and antibacterial compositions and methods containing them” (Sumitomo Chemical Company, Limited, priority 1974, dated 1979).
≈ marks a conversion by molar mass, not a printed value. Read-outs that look alike come from different tables or passages of the source.

Legend:
Assay type in all cases: cell-based
[1] = tested on: Klebsiella pneumoniae 602; experiment: Minimum Inhibitory Concentration, Klebsiella pneumoniae 602
Experimental: (§1) anti-microbial activity tests were carried out on the compounds obtained in the Examples.

[2] = tested on: Staphylococcus aureus 209 P; experiment: Minimum Inhibitory Concentration, Staphylococcus aureus 209 P; settings: for MIC: read-out: Minimum Inhibitory Concentration
Experimental: as §1

[3] = tested on: Enterobacter aerogeneus No. 75; experiment: Minimum Inhibitory Concentration, Enterobacter aerogeneus No. 75
Experimental: as §1

[4] = tested on: Staphylococcus aureus FS 289; experiment: Minimum Inhibitory Concentration, Staphylococcus aureus FS 289
Experimental: as §1
*Staphylococcus aureus FS 289: strain resistant to penicillin

Proteus vulgaris HX 19 = experiment: Minimum Inhibitory Concentration, Proteus vulgaris HX 19
Experimental: as §1

Escherichia coli NIHJ = experiment: Minimum Inhibitory Concentration, Escherichia coli NIHJ; settings: for MIC: read-out: Minimum Inhibitory Concentration
Experimental: as §1

[5] = tested on: Pseudomonas aeruginosa 104; experiment: Minimum Inhibitory Concentration, Pseudomonas aeruginosa 104
Experimental: as §1

Serratia No. 72 = experiment: Minimum Inhibitory Concentration, Serratia No. 72
Experimental: as §1

[6] = Klebsiella pneumoniae, 602, Klebsiella pneumoniae 602, read-out: Minimum Inhibitory Concentration
[7] = Enterobacter aerogeneus No. 75, read-out: Minimum Inhibitory Concentration
[8] = FS289, Staphylococcus aureus FS 289, strain resistant to penicillin, read-out: Minimum Inhibitory Concentration
[9] = HX19, Proteus vulgaris HX 19, read-out: Minimum Inhibitory Concentration
[10] = Pseudomonas aeruginosa 104, read-out: Minimum Inhibitory Concentration
[11] = Staphylococcus aureus, FS289, read-out: Minimum Inhibitory Concentration

SMILES	MIC [1, 6] [µg/mL]	MIC ([2]; Staphylococcus aureus 209 P) [µg/mL]	MIC [3, 7] [µg/mL]	MIC [4, 8] [µg/mL]	MIC (Proteus vulgaris HX 19; [9]) [µg/mL]	MIC (Escherichia coli NIHJ; Escherichia coli NIHJ) [µg/mL]	MIC [5, 10] [µg/mL]	MIC (Serratia No. 72) [µg/mL]	also measured
CC(=O)OCC1=C(C(=O)O)N2C(=O)[C@@H](NC(=O)[C@H](N)c3ccccc3)[C@H]2SC1 [CEG, reference compound]	3.13 (≈ 7.72 µM)	1.56 (≈ 3.85 µM)	50 (≈ 123 µM)	12.5 (≈ 30.8 µM)	12.5 (≈ 30.8 µM)	12.5 (≈ 30.8 µM)	> 200	> 200	–
CC(=O)OCC1=C(C(=O)O)N2C(=O)[C@@H](NC(=O)Cc3cccs3)[C@H]2SC1 [CET, reference compound]	–	–	–	–	–	–	–	> 200	MIC ([1]; Klebsiella pneumoniae, 602, read-out: Minimum Inhibitory Concentration): 0.78 µg/mL (≈ 1.97 µM); MIC ([2]; Staphylococcus aureus, 209P): 0.1 µg/mL (≈ 0.252 µM); MIC ([3]; Enterobacter, NO.75, read-out: Minimum Inhibitory Concentration): > 200 µg/mL; MIC [4, 11]: 0.78 µg/mL (≈ 1.97 µM); MIC (Proteus vulgaris HX 19; Proteus vulgaris, HX19, read-out: Minimum Inhibitory Concentration): 3.13 µg/mL (≈ 7.9 µM); MIC (Escherichia coli NIHJ; Escherichia coli): 12.5 µg/mL (≈ 31.5 µM); MIC ([5]; Pseudomonas aeruginosa, 104, read-out: Minimum Inhibitory Concentration): > 200 µg/mL
Cc1nnc(SCC2=C(C(=O)O)N3C(=O)[C@@H](NC(=O)Cn4cnnn4)[C@H]3SC2)s1 [CEZ, reference compound]	0.78 (≈ 1.72 µM)	0.2 (≈ 0.44 µM)	100 (≈ 220 µM)	–	6.25 (≈ 13.8 µM)	–	> 200	> 200	MIC [4, 11]: 1.56 µg/mL (≈ 3.43 µM); MIC (Escherichia coli NIHJ; Escherichia coli): 1.56 µg/mL (≈ 3.43 µM)
CC(=O)OCC1=C(C(=O)O)N2C(=O)[C@@H](NC(=O)[C@H](NC(=O)c3cnccc3O)c3ccc(NC(N)=O)cc3)[C@H]2SC1 [Example 1, 7-[D-α-(4-Hydroxypyridine-3-carboxyamido)-α-p-ureidophenylacetamido]cephalosporanic Acid]	12.5 (≈ 21.4 µM)	0.39 (≈ 0.667 µM)	25 (≈ 42.8 µM)	3.13 (≈ 5.35 µM)	0.2 (≈ 0.342 µM)	12.5 (≈ 21.4 µM)	6.25 (≈ 10.7 µM)	> 200	–
CC(=O)OCC1=C(C(=O)O)N2C(=O)[C@@H](NC(=O)[C@H](NC(=O)c3cnccc3O)c3cccc(NC(N)=O)c3)[C@H]2SC1 [Example 2]	12.5 (≈ 21.4 µM)	0.39 (≈ 0.667 µM)	25 (≈ 42.8 µM)	6.25 (≈ 10.7 µM)	0.39 (≈ 0.667 µM)	12.5 (≈ 21.4 µM)	6.25 (≈ 10.7 µM)	> 200	–
CC(=O)OCC1=C(C(=O)O)N2C(=O)[C@@H](NC(=O)[C@H](NC(=O)c3cccnc3O)c3ccc(NC(N)=O)cc3)[C@H]2SC1 [Example 3]	25 (≈ 42.8 µM)	0.39 (≈ 0.667 µM)	25 (≈ 42.8 µM)	6.25 (≈ 10.7 µM)	0.39 (≈ 0.667 µM)	25 (≈ 42.8 µM)	12.5 (≈ 21.4 µM)	> 200	–
CC(=O)OCC1=C(C(=O)[O-])N2C(=O)C(NC(=O)C(NC(=O)c3ccnnc3O)c3ccc(NC(N)=O)cc3)C2SC1.[Na+] (stereo not shown) [Example 4]	–	–	–	–	–	–	–	–	Minimum Inhibitory Concentration ([1]; Klebsiella pneumoniae 602): 6.25 µg/mL; Minimum Inhibitory Concentration ([2]; Staphylococcus aureus 209 P): 0.39 µg/mL; Minimum Inhibitory Concentration ([3]; Enterobacter aerogeneus No. 75): 50 µg/mL; Minimum Inhibitory Concentration ([4]; Staphylococcus aureus FS 289, strain resistant to penicillin): 6.25 µg/mL; Minimum Inhibitory Concentration (Proteus vulgaris HX 19; Proteus vulgaris HX 19): 0.2 µg/mL; Minimum Inhibitory Concentration (Escherichia coli NIHJ; Escherichia coli NIHJ): 6.25 µg/mL; Minimum Inhibitory Concentration ([5]; Pseudomonas aeruginosa 104): 25 µg/mL; Minimum Inhibitory Concentration (Serratia No. 72): 100 µg/mL
CC(=O)OCC1=C(C(=O)O)N2C(=O)[C@@H](NC(=O)[C@H](NC(=O)c3cncnc3O)c3ccc(NC(N)=O)cc3)[C@H]2SC1 [Example 5]	12.5 (≈ 21.3 µM)	0.39 (≈ 0.666 µM)	50 (≈ 85.4 µM)	6.25 (≈ 10.7 µM)	0.39 (≈ 0.666 µM)	12.5 (≈ 21.3 µM)	12.5 (≈ 21.3 µM)	200 (≈ 342 µM)	–
CC(=O)OCC1=C(C(=O)O)N2C(=O)[C@@H](NC(=O)[C@H](NC(=O)c3cnc(O)nc3O)c3ccc(NC(N)=O)cc3)[C@H]2SC1 [Example 6]	12.5 (≈ 20.8 µM)	0.39 (≈ 0.648 µM)	25 (≈ 41.6 µM)	6.25 (≈ 10.4 µM)	0.2 (≈ 0.332 µM)	12.5 (≈ 20.8 µM)	12.5 (≈ 20.8 µM)	200 (≈ 332 µM)	–

Continued, in another order:

MIC [1, 6] [µg/mL]	MIC ([2]; Staphylococcus aureus 209 P) [µg/mL]	MIC [3, 7] [µg/mL]	MIC [4, 8] [µg/mL]	MIC (Proteus vulgaris HX 19; [9]) [µg/mL]	MIC (Escherichia coli NIHJ; Escherichia coli NIHJ) [µg/mL]	MIC [5, 10] [µg/mL]	MIC (Serratia No. 72) [µg/mL]	SMILES	also measured
25 (≈ 44.9 µM)	0.78 (≈ 1.4 µM)	25 (≈ 44.9 µM)	6.25 (≈ 11.2 µM)	0.39 (≈ 0.701 µM)	25 (≈ 44.9 µM)	12.5 (≈ 22.5 µM)	> 200	CC(=O)OCC1=C(C(=O)O)N2C(=O)C(NC(=O)C(NC(=O)c3cnccc3O)c3ccc(CO)cc3)C2SC1 (racemic) [Example 88, 7-[DL-α-(4-Hydroxypyridine-3-carbonamido)-α-p-hydroxymethylphenylacetamido]cephalosporanic Acid]	–
1.56 (≈ 2.57 µM)	1.56 (≈ 2.57 µM)	6.25 (≈ 10.3 µM)	6.25 (≈ 10.3 µM)	0.78 (≈ 1.28 µM)	3.13 (≈ 5.15 µM)	6.25 (≈ 10.3 µM)	50 (≈ 82.3 µM)	CC(=O)OCC1=C(C(=O)O)N2C(=O)C(NC(=O)C(NC(=O)c3cnc4cccnc4c3O)c3ccc(CO)cc3)C2SC1 (racemic) [Example 89, 7-[DL-α-(4-Hydroxy-1,5-naphthyridine-3-carbonamido)-α-p-hydroxymethylphenylacetamido]cephalosporanic Acid]	–
25 (≈ 39.8 µM)	0.78 (≈ 1.24 µM)	12.5 (≈ 19.9 µM)	6.25 (≈ 9.94 µM)	0.39 (≈ 0.62 µM)	12.5 (≈ 19.9 µM)	12.5 (≈ 19.9 µM)	> 200	Cc1nnc(SCC2=C(C(=O)O)N3C(=O)C(NC(=O)C(NC(=O)c4cnccc4O)c4ccc(CO)cc4)C3SC2)s1 (racemic) [Example 90, 7-[DL-α-(4-Hydroxypyridine-3carbonamido)-α -p-hydroxymethylphenylacetamido]-3-(2-methyl-1,3,4-thiadiazol-5-yl)thiomethyl-3-cephem-4-carboxylic Acid]	–
3.13 (≈ 4.92 µM)	0.78 (≈ 1.23 µM)	6.25 (≈ 9.83 µM)	6.25 (≈ 9.83 µM)	0.78 (≈ 1.23 µM)	3.13 (≈ 4.92 µM)	6.25 (≈ 9.83 µM)	50 (≈ 78.7 µM)	CC(=O)OCC1=C(C(=O)O)N2C(=O)[C@@H](NC(=O)[C@H](NC(=O)c3cnc4cccnc4c3O)c3ccc(NC(N)=O)cc3)[C@H]2SC1 [Example 7]	–
12.5 (≈ 19.2 µM)	0.78 (≈ 1.2 µM)	12.5 (≈ 19.2 µM)	6.25 (≈ 9.62 µM)	0.39 (≈ 0.6 µM)	6.25 (≈ 9.62 µM)	6.25 (≈ 9.62 µM)	50 (≈ 77 µM)	CC(=O)OCC1=C(C(=O)O)N2C(=O)[C@@H](NC(=O)[C@H](NC(=O)c3cnc4nc(C)ccc4c3O)c3ccc(NC(N)=O)cc3)[C@H]2SC1 [Example 8]	–
12.5 (≈ 19.7 µM)	0.78 (≈ 1.23 µM)	12.5 (≈ 19.7 µM)	6.25 (≈ 9.83 µM)	0.39 (≈ 0.614 µM)	12.5 (≈ 19.7 µM)	12.5 (≈ 19.7 µM)	50 (≈ 78.7 µM)	CC(=O)OCC1=C(C(=O)O)N2C(=O)[C@@H](NC(=O)[C@H](NC(=O)c3nnc4ccccc4c3O)c3ccc(NC(N)=O)cc3)[C@H]2SC1 [Example 9]	–
6.25 (≈ 9.52 µM)	0.39 (≈ 0.594 µM)	12.5 (≈ 19 µM)	6.25 (≈ 9.52 µM)	0.1 (≈ 0.152 µM)	6.25 (≈ 9.52 µM)	6.25 (≈ 9.52 µM)	50 (≈ 76.1 µM)	Cc1nnc(SCC2=C(C(=O)O)N3C(=O)[C@@H](NC(=O)[C@H](NC(=O)c4cnccc4O)c4ccc(NC(N)=O)cc4)[C@H]3SC2)s1 [Example 12, 7-[D-α-(4-Hydroxypyridine-3-carboxyamido)-α-(p-ureidophenyl)acetamido]-3-(2-methyl-1,3,4-thiadiazol-5-yl)thiomethyl-3-cephem-4-carboxylic Acid]	–
3.13 (≈ 4.89 µM)	0.39 (≈ 0.609 µM)	12.5 (≈ 19.5 µM)	6.25 (≈ 9.76 µM)	0.2 (≈ 0.312 µM)	6.25 (≈ 9.76 µM)	6.25 (≈ 9.76 µM)	50 (≈ 78 µM)	Cn1nnnc1SCC1=C(C(=O)O)N2C(=O)[C@@H](NC(=O)[C@H](NC(=O)c3cnccc3O)c3ccc(NC(N)=O)cc3)[C@H]2SC1 [Example 13, 7-[D-α-(4-Hydroxypyridine-3-carboxyamido)-α-(p-ureidophenyl)acetamido]-3-(1-methyltetrazol-5-yl)-thiomethyl-3-cephem-4-carboxylic Acid]	–
